Consider one compound from US7612200B2, “Inhibitors of protein kinases” (Locus Pharmaceuticals, Inc., priority 2004, dated 2009).

Common to all, as to type: biochemical
One assay addresses T1, Flt3 (Homo sapiens, UniProt P36888).
T1 sequence (P36888 27-993): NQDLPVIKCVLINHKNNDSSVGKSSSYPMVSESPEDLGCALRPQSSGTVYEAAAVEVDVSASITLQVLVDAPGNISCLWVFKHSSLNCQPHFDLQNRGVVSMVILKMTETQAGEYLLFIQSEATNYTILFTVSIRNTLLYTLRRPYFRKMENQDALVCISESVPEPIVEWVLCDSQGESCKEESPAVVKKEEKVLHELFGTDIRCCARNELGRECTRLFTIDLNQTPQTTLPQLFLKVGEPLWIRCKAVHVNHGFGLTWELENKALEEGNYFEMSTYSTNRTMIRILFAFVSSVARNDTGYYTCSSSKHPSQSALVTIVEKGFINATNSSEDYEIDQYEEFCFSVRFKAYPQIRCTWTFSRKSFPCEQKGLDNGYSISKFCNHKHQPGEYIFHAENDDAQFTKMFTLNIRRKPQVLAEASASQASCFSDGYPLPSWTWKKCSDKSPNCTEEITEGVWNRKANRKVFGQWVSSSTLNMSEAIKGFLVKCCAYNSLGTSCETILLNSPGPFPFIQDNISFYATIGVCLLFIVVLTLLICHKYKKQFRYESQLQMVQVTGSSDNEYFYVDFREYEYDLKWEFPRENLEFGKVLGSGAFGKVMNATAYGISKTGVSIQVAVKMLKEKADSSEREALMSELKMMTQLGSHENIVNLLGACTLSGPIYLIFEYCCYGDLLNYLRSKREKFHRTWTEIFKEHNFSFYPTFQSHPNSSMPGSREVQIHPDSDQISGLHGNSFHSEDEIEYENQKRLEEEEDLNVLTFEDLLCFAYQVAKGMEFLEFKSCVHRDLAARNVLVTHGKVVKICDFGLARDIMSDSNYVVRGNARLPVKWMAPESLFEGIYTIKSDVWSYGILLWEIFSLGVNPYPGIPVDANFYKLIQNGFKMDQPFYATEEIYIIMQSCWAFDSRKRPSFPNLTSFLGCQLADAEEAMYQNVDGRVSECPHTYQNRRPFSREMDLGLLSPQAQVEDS
Put plainly: Flt3 Kinase Activity. The protocol: Flt3 Kinase Activity: In a final reaction volume of 25 μl, Flt3 (h) (5-10 mU) is incubated with 8 mM MOPS pH 7.0, 0.2 mM EDTA, 50 μM EAIYAAPFAKKK, 10 mM MgAcetate and [γ-^33P-ATP] (specific activity approx. 500 cpm/pmol, concentration as required). The reaction is initiated by the addition of the MgATP mix. After incubation for 40 minutes at room temperature, the reaction is stopped by the addition of […] of a 3% phosphoric acid solution. […] of the reaction is then spotted onto a P30 filtermat and washed three times for 5 minutes in 75 mM phosphoric acid and once in methanol prior to drying and scintillation counting.

The next assay addresses JNK2α2 (Homo sapiens, UniProt P45984). In words: JNK2α2 Kinase Activity. On the procedure:
(§1) JNK2α2 Kinase Activity: In a final reaction volume of 25 μl, JNK2α2 (h) (5-10 mU) is incubated with 50 mM Tris pH 7.5, 0.1 mM EGTA, 0.1% β-mercaptoethanol, 3 μM ATF2, 10 mM MgAcetate and [γ-^33P-ATP] (specific activity approx. 500 cpm/pmol, concentration as required). The reaction is initiated by the addition of the MgATP mix. After incubation for 40 minutes at room temperature, the reaction is stopped by the addition of 5 μl of a 3% phosphoric acid solution. 10 μl of the reaction is then spotted onto a P30 filtermat and washed three times for 5 minutes in 75 mM phosphoric acid and once in methanol prior to drying and scintillation counting.

Another assay deals with JNK3 (Homo sapiens, UniProt P53779). Put plainly: JNK3 Kinase Activity. The conditions noted are these: compound at 2 μm. On the procedure: as §1, with “JNK3 Kinase” for “JNK2α2 Kinase”, “μl, JNK3” for “μl, JNK2α2”, “β-mercaptoethanol, 250” for “β-mercaptoethanol, 3”, “μM peptide,” for “μM ATF2,”
The target in another assay is p38α (Homo sapiens, UniProt Q16539). Put plainly: SAPK2a Kinase Activity (p38α). The protocol:
as §1, with “SAPK2a Kinase” for “JNK2α2 Kinase”, “μl, SAPK2a” for “μl, JNK2α2”, “with 25” for “with 50”, “7.5, 0.02” for “7.5, 0.1”, “EGTA, 0.33 mg/ml myelin basic protein,” for “EGTA, 0.1% β-mercaptoethanol, 3 μM ATF2,”, “is the” for “is then”

The next assay deals with EphA8 (Homo sapiens, UniProt P29322). Put plainly: Protein kinase inhibition, EphA8. The settings on record: Rate (μM) 2, read-out: % Control.
The target in a further assay is FGFR1 (Homo sapiens, UniProt P11362). In words: Protein kinase inhibition, FGFR1. The settings on record: Rate (μM) 2, read-out: % Control.
The next assay concerns the target KDR (Homo sapiens, UniProt P35968). In words: Protein kinase inhibition, KDR. The settings on record: Rate (μM) 2, read-out: % Control.
The target of another assay is Lyn (Mus musculus, UniProt P25911). Put plainly: Protein kinase inhibition, Lyn (mouse). The conditions noted are these: Rate (μM) 2, read-out: % Control.
A further assay deals with MKK6 (Homo sapiens, UniProt P52564). In words: Protein kinase inhibition, MKK6. The settings on record: Rate (μM) 2, read-out: % Control.
A further assay concerns the target Mnk2 (Homo sapiens, UniProt Q9HBH9). Put plainly: Protein kinase inhibition, Mnk2. The conditions noted are these: Rate (μM) 2, read-out: % Control.
The next assay deals with MuSK (Homo sapiens, UniProt O15146). In words: Protein kinase inhibition, MuSK. The conditions noted are these: Rate (μM) 2, read-out: % Control.
In a further assay the target is Ret (Homo sapiens, UniProt P07949). In words: Protein kinase inhibition, Ret. The conditions noted are these: Rate (μM) 2, read-out: % Control.
A further assay concerns the target Ros (Homo sapiens, UniProt P08922). Put plainly: Protein kinase inhibition, Ros. The settings on record: Rate (μM) 2, read-out: % Control.

Structures are written as SMILES.

Sequence of p38α (Q16539 whole entry): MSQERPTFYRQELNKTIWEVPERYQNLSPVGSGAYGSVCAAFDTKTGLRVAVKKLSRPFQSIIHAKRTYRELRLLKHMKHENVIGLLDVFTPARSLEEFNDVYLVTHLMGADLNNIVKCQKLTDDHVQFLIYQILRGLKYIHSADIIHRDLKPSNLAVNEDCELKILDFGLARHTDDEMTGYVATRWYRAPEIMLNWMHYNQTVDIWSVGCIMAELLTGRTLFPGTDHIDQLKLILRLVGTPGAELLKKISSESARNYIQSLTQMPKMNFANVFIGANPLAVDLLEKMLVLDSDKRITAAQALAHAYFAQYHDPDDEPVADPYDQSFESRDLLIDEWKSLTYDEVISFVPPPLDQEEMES
Sequence of JNK2α2 (P45984 whole entry): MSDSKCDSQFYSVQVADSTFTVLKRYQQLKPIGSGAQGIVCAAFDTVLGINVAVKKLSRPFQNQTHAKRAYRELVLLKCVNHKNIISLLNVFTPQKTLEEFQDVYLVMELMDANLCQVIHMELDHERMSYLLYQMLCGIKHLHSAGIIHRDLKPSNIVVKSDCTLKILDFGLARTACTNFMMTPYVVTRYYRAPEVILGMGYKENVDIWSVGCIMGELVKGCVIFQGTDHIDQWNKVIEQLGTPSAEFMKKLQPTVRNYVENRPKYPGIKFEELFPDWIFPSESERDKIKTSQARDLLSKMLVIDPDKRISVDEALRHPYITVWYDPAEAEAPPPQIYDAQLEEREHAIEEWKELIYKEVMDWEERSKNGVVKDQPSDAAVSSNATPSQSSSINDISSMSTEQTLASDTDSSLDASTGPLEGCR
Sequence of Ret (P07949 29-1114): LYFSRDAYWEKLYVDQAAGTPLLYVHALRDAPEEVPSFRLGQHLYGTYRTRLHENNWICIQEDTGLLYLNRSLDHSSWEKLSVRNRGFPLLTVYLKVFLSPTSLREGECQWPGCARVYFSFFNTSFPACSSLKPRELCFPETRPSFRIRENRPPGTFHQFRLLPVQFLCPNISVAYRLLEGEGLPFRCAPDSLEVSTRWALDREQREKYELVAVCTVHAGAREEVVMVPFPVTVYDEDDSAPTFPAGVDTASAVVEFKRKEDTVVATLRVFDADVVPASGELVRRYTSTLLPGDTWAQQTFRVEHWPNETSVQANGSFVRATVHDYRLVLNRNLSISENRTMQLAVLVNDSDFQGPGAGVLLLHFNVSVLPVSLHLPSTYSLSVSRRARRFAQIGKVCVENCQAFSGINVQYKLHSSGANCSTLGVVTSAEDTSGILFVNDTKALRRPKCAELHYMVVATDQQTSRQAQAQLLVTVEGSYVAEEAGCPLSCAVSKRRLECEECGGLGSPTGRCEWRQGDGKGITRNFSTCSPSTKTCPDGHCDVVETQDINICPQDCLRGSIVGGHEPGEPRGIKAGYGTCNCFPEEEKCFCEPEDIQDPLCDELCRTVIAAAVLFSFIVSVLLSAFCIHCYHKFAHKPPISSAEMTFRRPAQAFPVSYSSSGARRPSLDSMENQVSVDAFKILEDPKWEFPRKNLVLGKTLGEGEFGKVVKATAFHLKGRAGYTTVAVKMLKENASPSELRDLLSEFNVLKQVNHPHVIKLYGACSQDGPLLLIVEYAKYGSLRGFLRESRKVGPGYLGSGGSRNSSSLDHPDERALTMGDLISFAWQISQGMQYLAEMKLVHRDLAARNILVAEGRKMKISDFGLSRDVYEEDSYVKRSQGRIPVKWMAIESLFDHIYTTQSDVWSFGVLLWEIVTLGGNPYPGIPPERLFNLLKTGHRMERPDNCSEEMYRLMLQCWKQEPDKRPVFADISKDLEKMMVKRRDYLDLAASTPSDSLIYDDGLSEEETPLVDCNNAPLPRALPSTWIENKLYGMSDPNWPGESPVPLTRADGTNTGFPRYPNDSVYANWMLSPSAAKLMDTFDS
Sequence of JNK3 (P53779 whole entry): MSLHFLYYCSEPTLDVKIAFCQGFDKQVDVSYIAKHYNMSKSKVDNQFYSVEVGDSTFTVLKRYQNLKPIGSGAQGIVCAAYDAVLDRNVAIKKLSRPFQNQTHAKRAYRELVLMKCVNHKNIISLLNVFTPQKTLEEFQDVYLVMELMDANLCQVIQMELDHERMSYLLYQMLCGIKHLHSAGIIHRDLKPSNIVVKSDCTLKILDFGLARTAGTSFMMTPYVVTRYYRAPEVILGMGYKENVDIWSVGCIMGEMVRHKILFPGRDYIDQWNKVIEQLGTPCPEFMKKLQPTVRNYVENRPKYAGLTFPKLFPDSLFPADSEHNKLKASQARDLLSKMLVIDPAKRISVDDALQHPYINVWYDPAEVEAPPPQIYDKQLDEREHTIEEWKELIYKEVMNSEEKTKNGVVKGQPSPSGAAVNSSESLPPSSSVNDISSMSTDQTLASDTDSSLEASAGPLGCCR
Sequence of MuSK (O15146 24-869): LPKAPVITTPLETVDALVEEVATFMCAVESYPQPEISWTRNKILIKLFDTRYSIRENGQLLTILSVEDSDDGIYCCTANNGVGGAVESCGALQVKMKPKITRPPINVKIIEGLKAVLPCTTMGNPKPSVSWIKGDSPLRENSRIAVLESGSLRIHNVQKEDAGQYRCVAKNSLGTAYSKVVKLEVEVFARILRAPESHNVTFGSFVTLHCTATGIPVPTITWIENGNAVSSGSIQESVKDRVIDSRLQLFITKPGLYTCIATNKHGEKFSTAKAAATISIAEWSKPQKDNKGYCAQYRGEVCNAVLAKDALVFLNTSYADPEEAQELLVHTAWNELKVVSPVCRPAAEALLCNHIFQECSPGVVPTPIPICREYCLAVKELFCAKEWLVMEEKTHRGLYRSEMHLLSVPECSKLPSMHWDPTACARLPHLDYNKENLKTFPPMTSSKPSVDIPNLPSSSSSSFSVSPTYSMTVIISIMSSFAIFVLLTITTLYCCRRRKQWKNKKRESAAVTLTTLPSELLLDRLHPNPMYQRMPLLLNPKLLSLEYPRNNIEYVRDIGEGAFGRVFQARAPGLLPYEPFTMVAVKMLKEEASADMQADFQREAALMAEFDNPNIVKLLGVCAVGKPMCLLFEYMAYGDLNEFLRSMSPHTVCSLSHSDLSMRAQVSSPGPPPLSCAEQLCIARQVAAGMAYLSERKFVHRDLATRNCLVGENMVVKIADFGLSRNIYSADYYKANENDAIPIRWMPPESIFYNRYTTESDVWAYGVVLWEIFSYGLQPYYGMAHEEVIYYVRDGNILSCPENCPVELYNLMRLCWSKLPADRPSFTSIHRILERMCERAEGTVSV
Sequence of EphA8 (P29322 28-1005): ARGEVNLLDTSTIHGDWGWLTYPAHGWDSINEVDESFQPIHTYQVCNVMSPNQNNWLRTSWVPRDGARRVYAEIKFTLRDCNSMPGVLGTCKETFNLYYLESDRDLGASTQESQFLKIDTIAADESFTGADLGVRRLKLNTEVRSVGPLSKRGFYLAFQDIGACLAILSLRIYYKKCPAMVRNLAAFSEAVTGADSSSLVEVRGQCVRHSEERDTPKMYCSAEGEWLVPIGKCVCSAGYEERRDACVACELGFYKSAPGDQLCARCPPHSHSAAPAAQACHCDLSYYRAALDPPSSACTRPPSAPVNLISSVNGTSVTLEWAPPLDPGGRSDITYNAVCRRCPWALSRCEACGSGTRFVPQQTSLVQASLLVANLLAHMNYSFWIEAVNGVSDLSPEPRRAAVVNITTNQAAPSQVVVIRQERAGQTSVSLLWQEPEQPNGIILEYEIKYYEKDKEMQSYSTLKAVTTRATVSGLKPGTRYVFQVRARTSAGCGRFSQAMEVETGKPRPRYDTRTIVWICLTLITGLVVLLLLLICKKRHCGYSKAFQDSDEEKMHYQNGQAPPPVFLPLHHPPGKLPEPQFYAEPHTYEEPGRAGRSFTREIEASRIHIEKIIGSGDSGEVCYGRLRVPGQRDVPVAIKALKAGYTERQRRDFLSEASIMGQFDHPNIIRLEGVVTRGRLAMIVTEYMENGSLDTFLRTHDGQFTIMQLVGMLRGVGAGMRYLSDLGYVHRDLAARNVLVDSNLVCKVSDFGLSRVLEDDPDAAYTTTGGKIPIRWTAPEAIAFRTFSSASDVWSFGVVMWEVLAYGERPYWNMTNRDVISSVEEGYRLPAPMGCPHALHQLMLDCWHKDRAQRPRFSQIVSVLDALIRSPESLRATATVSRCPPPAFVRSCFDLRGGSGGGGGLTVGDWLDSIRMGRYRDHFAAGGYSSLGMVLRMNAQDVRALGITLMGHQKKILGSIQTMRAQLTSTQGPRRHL
Sequence of MKK6 (P52564 whole entry): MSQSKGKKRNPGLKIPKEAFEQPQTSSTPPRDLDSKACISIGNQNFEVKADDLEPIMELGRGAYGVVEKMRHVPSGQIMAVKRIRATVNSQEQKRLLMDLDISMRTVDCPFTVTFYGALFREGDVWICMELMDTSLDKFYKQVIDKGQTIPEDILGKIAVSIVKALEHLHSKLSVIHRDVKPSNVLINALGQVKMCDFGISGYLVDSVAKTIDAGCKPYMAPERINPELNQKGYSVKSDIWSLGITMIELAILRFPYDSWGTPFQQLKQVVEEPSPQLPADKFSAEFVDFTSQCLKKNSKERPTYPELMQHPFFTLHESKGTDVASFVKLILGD
Sequence of Mnk2 (Q9HBH9 whole entry): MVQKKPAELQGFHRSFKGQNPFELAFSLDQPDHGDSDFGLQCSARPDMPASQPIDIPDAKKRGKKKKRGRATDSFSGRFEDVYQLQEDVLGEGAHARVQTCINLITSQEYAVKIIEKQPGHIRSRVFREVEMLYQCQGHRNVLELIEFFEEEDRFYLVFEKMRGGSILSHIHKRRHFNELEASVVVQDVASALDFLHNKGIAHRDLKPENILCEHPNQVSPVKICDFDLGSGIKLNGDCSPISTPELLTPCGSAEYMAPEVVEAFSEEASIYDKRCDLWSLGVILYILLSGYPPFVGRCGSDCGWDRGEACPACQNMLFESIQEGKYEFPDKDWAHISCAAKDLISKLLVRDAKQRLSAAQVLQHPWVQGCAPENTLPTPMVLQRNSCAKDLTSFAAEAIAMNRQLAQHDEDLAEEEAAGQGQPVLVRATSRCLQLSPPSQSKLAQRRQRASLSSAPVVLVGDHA

Turning to `CC(C)(C)c1cc(C(=O)N2CCS(=O)(=O)CC2)c(NC(=O)Nc2ccc(Oc3ccncc3)cc2)s1` [Example 3, 1-[5-tert-Butyl-3-(1,1-dioxo-1λ^6-thiomorpholine-4-carbonyl)thiophen-2-yl]-3-[4-(pyridin-4-yloxy)phenyl]urea], the remaining activity at 2 µM is 76 to 100% at Flt3 (40 min, Flt3, Human, Rate (μM) 2, read-out: % Control); 76 to 100% at EphA8; 76 to 100% at FGFR1; 76 to 100% on KDR; 76 to 100% at Lyn; 76 to 100% on MKK6. Further, the remaining activity at 2 µM on Mnk2, on MuSK, at Ret and at Ros was 76 to 100% each time. In addition, the “% Inhibition at 2 μm” value at Flt3 (Flt3, compound at 2 μm) is given as 76-100%; on JNK2α2 (JNK2a2, compound at 2 μm) it was 26-50%; on JNK3, 0-25%; on p38α (p38α, compound at 2 μm), 76-100%. The “% inhibition” value is given as 26-50% at JNK2α2 (JNK2α2, Human, Rate (μM) 2) and 76-100% on p38α (P38a, Human, Rate (μM) 2).
